This note sets out measurements from patent publication US20220041647A1, “ESTRA-1,3,5(10)-TRIENE COMPOUNDS CONDENSED IN POSITION 16(17) WITH A PYRAZOLE RING AS INHIBITORS OF 17-HSD1” (FORENDO PHARMA LTD, priority 2018, published 2022).

Assay type in all cases: biochemical
In test [1] the test system is HSD1 enzyme that is expressed in rabbit placenta tissue. The experiment in a line: Inhibition of E1 to E2 conversion in rabbit placenta tissue homogenate. The following applies: compound 100 nM, 30 nM estrone, 1 mM β-NADPH, 30 min. Here is the method:
The assay is based on an enzymatic reaction where HSD1 enzyme that is expressed in rabbit placenta tissue converts its natural substance estrone (E1) to estradiol (E2) in the presence of a co-factor β-NADPH.
Homogenization of rabbit placenta tissue: Weight a piece of the frozen tissue into a Precellys ck28 bead tube. Add buffer solution (20 mM KH2PO4 with 1 mM EDTA, pH 7.4) in 1:2 ratio (e.g. 300 mg of tissue:600 μl reaction buffer solution). Insert the bead tubes to homogenizer and homogenize 2×30 s. 6000 rpm.
Centrifugated 5 min., 2600 rpm at +4° C. and collect supernatant. Aliquots of homogenate are stored in −80° C.
Assay—Inhibition of E1 to E2 conversion in rabbit placenta tissue: The reaction takes place in a buffer solution (20 mM KH2PO4 with 1 mM EDTA, pH 7,4), including appropriate amount of rabbit placenta homogenate, co-factor (1 mM β-NADPH), Substrate (30 nM estrone), labelled substrate as tracer (5 nM [^3H]-estrone), and the potential inhibitor at concentrations 1 μM or 0.1 μM. Inhibitor stock solutions were prepared in DMSO. Final concentration of DMSO was adjusted to 1% in all samples. During a 30-minute incubation part of the estrone is converted to estradiol. The reaction is stopped by lowering the pH to 1 with 10% trichloro acetic acid (TCA). The substrate and conversion products are analyzed by HPLC and a Scintillation counter analyzer. Total radioactivity for estrone and estradiol were determined in each sample and percent conversion of estrone to estradiol was calculated according to the following formula:
% conversion=100×{(cpm estradiol in sample with inhibitor)/[(cpm estrone in sample with inhibitor)+(cpm estradiol in sample with inhibitor)]}/{(cpm estradiol in sample without inhibitor)/[(cpm estrone in sample without inhibitor)+(cpm estradiol in sample without inhibitor)]}.
(§1) Percent inhibition was calculated followingly: % inhibition=100−% conversion.

Test [2] has as its target T1, recombinant human 17β-HSD2 (Homo sapiens, UniProt P37059).
T1 construct: made in house; host or cells: Sd9 (Sf9) insect cells, baculovirus (Bac to Bac Expression System)
T1 sequence (P37059 1-387): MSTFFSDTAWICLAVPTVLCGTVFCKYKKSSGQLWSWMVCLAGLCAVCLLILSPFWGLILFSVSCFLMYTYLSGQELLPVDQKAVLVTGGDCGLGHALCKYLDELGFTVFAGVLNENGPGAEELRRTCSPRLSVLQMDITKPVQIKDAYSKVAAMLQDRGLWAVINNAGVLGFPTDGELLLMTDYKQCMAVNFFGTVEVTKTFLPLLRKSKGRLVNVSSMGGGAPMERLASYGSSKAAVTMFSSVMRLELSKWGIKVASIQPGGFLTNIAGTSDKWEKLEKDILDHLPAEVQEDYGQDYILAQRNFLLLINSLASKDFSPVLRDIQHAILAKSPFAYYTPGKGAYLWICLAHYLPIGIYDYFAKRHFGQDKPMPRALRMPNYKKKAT
Briefly: Inhibition of recombinant human 17β-HSD2 (estradiol to estrone conversion, HPLC/radioactivity). The following applies: compound 1 μM; 50 nM estradiol, 1 mM NADH, 30 min RT. Here is the method: 17β-HSD2 production and isolation: Similarly to 173-HSD1 the Recombinant baculovirus was generated by the “Bac to Bac Expression System” (Invitrogen). Recombinant bacmid was transfected to Sd9 insect cells using “Cellfectin Reagent” (Invitrogen). 60 h later cells were harvested and supernatant were fractionated by the following protocol: • cells were dissolved into 40 ml of A-buffer (40 mM TRIS, pH8.0, 20% glycerol, 20 μM NAD, 0.4 mM PMSF, 150 mM NaCl, 0.5% dodecyl-β-maltoside+protease inhibitor cocktail) • cells were sonicated • lysate was incubated on ice for 15 min • lysate was centrifuged 5000 rpm 15 min, +4° C. • centrifugation of the supernatant 180 000 g 30 min, +4° C. • pellet was dissolved into 8 ml of A-buffer • not resuspended material was removed by centrifugation 5000 rpm 15 min, +4° C. • the clear supernatant was divided into 100 μl aliquots and were stored frozen until determination of enzymatic activity.
The amount of 173-HSD2 was analysed by immunoblotting and total protein concentration of each extract batch was determined.
Assay—Inhibition of recombinant human 17β-HSD2: Recombinant protein (4 μg/ml) was incubated in 20 mM KH2PO4 pH 8.5 with 50 nM estradiol (including 800 000 cpm/ml of ^3H-estradiol) and 1 mM NADH for 30 min at RT, in the presence of the potential inhibitor at concentrations 1 μM or 0.1 μM. Inhibitor stock solutions were prepared in DMSO. Final concentration of DMSO was adjusted to 1% in all samples. The enzyme reaction was stopped by addition of 10% trichloroacetic acid (final concentration). Samples were centrifuged in a microtiter plate at 4000 rpm for 10 min. Supernatants were applied to reverse phase HPLC on a Waters Symmetry C18 column, equipped with a Waters Sentry Guard column. Isocratic HPLC runs were performed at RT at a flow rate of1 ml/min in acetonitrile:water 48:52 as running solvent. Radioactivity was monitored in the eluate by a Scintillation Analyzer. Total radioactivity for estrone and estradiol were determined in each sample and percent conversion of estradiol to estrone was calculated according to the following formula:
% conversion=100×{(cpm estrone in sample with inhibitor)/[(cpm estradiol in sample with inhibitor)+(cpm estrone in sample with inhibitor)]}/{[(cpm estrone in sample without inhibitor)/[(cpm estradiol in sample without inhibitor)+(cpm estrone in sample without inhibitor)]}.
as §1

In test [3] the target is T2, recombinant human 17β-HSD1 (Homo sapiens, UniProt P14061).
T2 construct: made in house; host or cells: Sd9 (Sf9) insect cells, baculovirus (Bac to Bac Expression System)
T2 sequence (P14061 1-328): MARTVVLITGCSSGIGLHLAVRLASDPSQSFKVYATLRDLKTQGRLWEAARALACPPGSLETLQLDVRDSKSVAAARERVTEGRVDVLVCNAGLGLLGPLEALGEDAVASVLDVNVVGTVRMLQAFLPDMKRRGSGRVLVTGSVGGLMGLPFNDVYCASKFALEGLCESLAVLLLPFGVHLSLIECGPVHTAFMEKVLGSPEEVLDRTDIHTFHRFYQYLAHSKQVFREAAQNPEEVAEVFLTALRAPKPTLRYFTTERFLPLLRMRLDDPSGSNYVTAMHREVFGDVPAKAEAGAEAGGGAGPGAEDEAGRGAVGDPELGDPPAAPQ
The experiment in a line: Inhibition of recombinant human 17β-HSD1 (estrone to estradiol conversion, HPLC/radioactivity). The following applies: compound 100 nM; 30 nM estrone, 1 mM NADPH, 30 min RT. Here is the method:
17β-HSD1 production and isolation: Recombinant baculovirus was generated by the “Bac to Bac Expression System” (Invitrogen). Recombinant bacmid was transfected to Sd9 insect cells using “Cellfectin Reagent” (Invitrogen). 60 h later cells were harvested; the microsomal fraction was isolated as described by Puranen, T. J., Poutanen, M. H., Peltoketo, H. E., Vihko, P. T. and Vihko, R. K. (1994) Site-directed mutagenesis of the putative active site of human 17 β-hydroxysteroid dehydrogenase type 1. Biochem. J. 304: 289-293. Aliquots were stored frozen until determination of enzymatic activity.
Assay—Inhibition of recombinant human 17β-HSD1: Recombinant protein (1 μg/ml) was incubated in 20 mM KH2PO4 pH 7.4 with 30 nM estrone (including 800 000 cpm/ml of ^3H-estrone) and 1 mM NADPH for 30 min at RT, in the presence of the potential inhibitor at concentrations 1 μM or 0.1 μM. Inhibitor stock solutions were prepared in DMSO. Final concentration of DMSO was adjusted to 1% in all samples. The enzyme reaction was stopped by addition of 10% trichloroacetic acid (final concentration). Samples were centrifuged in a microtiter plate at 4000 rpm for 10 min. Supernatants were applied to reverse phase HPLC on a Waters Symmetry C18 column, equipped with a Waters Sentry Guard column. Isocratic HPLC runs were performed at RT at a flow rate of 1 ml/min in acetonitrile:water 48:52 as running solvent. Radioactivity was monitored in the eluate by a Scintillation Analyzer. Total radioactivity for estrone and estradiol were determined in each sample and percent conversion of estrone to estradiol was calculated according to the following formula:
% conversion=100×{(cpm estradiol in sample with inhibitor)/[(cpm estrone in sample with inhibitor)+(cpm estradiol in sample with inhibitor)]}/{[(cpm estradiol in sample without inhibitor)/[(cpm estrone in sample without inhibitor)+(cpm estradiol in sample without inhibitor)]}.
as §1

Take `C[C@]12CCC3c4cccc(F)c4CCC3C1[C@H](CCC(=O)Nc1ccc(C#N)cn1)c1c[nH]nc12` (stereo partly drawn) [Compound 3, N-(5-Cyanopyridin-2-yl)-3-((8aS,12S)-3-fluoro-8a-methyl-1,2,6b,7,8,8a,10,12,12a,12b-decahydronaphtho[2′,1′:4,5]indeno[1,2-c]pyrazol-12-yl)propanamide]: in test [1], the “Rabbit placenta inhibition % @100 nM” value came to 54%. Further, the inhibition (in general, the drop in the measured response relative to a control, in per cent) at 1 µM in test [2] was 9%. Also, the inhibition at 0.1 µM in test [3] was 98%.

Turning to `COc1ccc(NC(=O)CC[C@@H]2c3c[nH]nc3[C@@]3(C)CCC4c5cccc(F)c5CCC4C23)nn1` (stereo partly drawn) [Compound 6, 3-((8aS,12S)-3-fluoro-8a-methyl-1,2,6b,7,8,8a,10,12,12a,12b-decahydronaphtho[2′,1′:4,5]indeno[1,2-c]pyrazol-12-yl)-N-(6-methoxypyridazin-3-yl)propanamide], the “Rabbit placenta inhibition % @100 nM” value in test [1] is 86%. For the same compound, in test [2], the inhibition at 1 µM worked out at 8%. Also, the inhibition at 0.1 µM in test [3] was 93%.

For the compound `C[C@]12CCC3c4cccc(F)c4CCC3C1[C@H](CCC(=O)Nc1ccc(F)cn1)c1c[nH]nc12` (stereo partly drawn) [Compound 12, 3-((8aS,12S)-3-fluoro-8a-methyl-1,2,6b,7,8,8a,10,12,12a,12b-decahydronaphtho[2′,1′:4,5]indeno[1,2-c]pyrazol-12-yl)-N-(5-fluoropyridin-2-yl)propanamide], in test [1], the “Rabbit placenta inhibition % @100 nM” value was 46%. Moreover, the inhibition at 1 µM in test [2] was 5%. Also, the inhibition at 0.1 µM in test [3] came to 92%.

For `Cc1ccnc(NC(=O)CC[C@@H]2c3c[nH]nc3[C@@]3(C)CCC4c5cccc(F)c5CCC4C23)c1` (stereo partly drawn) [Compound 27, 3-((8aS,12S)-3-fluoro-8a-methyl-1,2,6b,7,8,8a,10,12,12a,12b-decahydronaphtho[2′,1′:4,5]indeno[1,2-c]pyrazol-12-yl)-N-(4-methylpyridin-2-yl)propanamide], the “Rabbit placenta inhibition % @100 nM” value in test [1] is given as 55%. Further, the inhibition at 1 µM in test [2] was 2%. Moreover, in test [3], the inhibition at 0.1 µM turned out to be 96%.

As for `CN(CC1CC1)C(=O)CC[C@@H]1c2c[nH]nc2[C@@]2(C)CCC3c4cccc(F)c4CCC3C12` (stereo partly drawn) [Compound 60, N-(cyclopropylmethyl)-3-((8aS,12S)-3-fluoro-8a-methyl-1,2,6b,7,8,8a,10,12,12a,12b-decahydronaphtho[2′,1′:4,5]indeno[1,2-c]pyrazol-12-yl)-N-methylpropanamide], the “Rabbit placenta inhibition % @100 nM” value in test [1] amounted to 16%. Besides, the inhibition at 1 µM in test [2] amounted to 9%. For the same compound, in test [3], the inhibition at 0.1 µM worked out at 93%.

Take `CC(C)(C)NC(=O)CC[C@@H]1c2c[nH]nc2[C@@]2(C)CCC3c4cccc(F)c4CCC3C12` (stereo partly drawn) [Compound 72, N-(tert-butyl)-3-((8aS,12S)-3-fluoro-8a-methyl-1,2,6b,7,8,8a,10,12,12a,12b-decahydronaphtho[2′,1′:4,5]indeno[1,2-c]pyrazol-12-yl)propanamide]: the inhibition at 1 µM in test [2] was 2%. Moreover, the inhibition at 0.1 µM in test [3] was 93%.

Turning to `C[C@]12CCC3c4ccc(F)cc4CCC3C1[C@H](CCC(=O)N1CCCC1)c1c[nH]nc12` (stereo partly drawn) [Compound 117, 3-((8aS,12S)-4-fluoro-8a-methyl-1,2,6b,7,8,8a,10,12,12a,12b-decahydronaphtho[2′,1′:4,S]indeno[1,2-c]pyrazol-12-yl)-1-(pyrrolidin-1-yl)propan-1-one], the inhibition at 1 µM in test [2] stood at 2%. Besides, the inhibition at 0.1 µM in test [3] was 73%.

`C[C@]12CCC3c4ccccc4CCC3C1[C@H](CCC(=O)N1CCOCC1)c1c[nH]nc12` (stereo partly drawn) [Compound 249, 3-((8aS,12S)-8a-methyl-1,2,6b,7,8,8a,10,12,12a,12b-decahydronaphtho[2′,1′:4,5]indeno[1,2-c]pyrazol-12-yl)-1-morpholinopropan-1-one]: the inhibition at 1 µM in test [2] was found to be 7%. Besides, in test [3], the inhibition at 0.1 µM came out at 59%.

With `C[C@]12CCC3c4ccccc4CCC3C1[C@H](CCC(=O)Nc1ncc(F)cc1F)c1c[nH]nc12` (stereo partly drawn) [Compound 261, N-(3,5-difluoropyridin-2-yl)-3-((8aS,12S)-8a-methyl-1,2,6b,7,8,8a,10,12,12a,12b-decahydronaphtho[2′,1′:4,5]indeno[1,2-c]pyrazol-12-yl)propanamide], in test [2], the inhibition at 1 µM is 9%. Also, the inhibition at 0.1 µM in test [3] turned out to be 50%.

`C[C@]12CCC3c4ccccc4CCC3C1[C@H](CCC(=O)Nc1ncccc1F)c1c[nH]nc12` (stereo partly drawn) [Compound 264, N-(3-fluoropyridin-2-yl)-3-((8aS,12S)-8a-methyl-1,2,6b,7,8,8a,10,12,12a,12b-decahydronaphtho[2′,1′:4,5]indeno[1,2-c]pyrazol-12-yl)propanamide]: in test [2], the inhibition at 1 µM stood at 4%. Moreover, the inhibition at 0.1 µM in test [3] is 54%.
